Measured values as given in patent US20100254965A1, “Adenosine Signaling in Diagnosis, Treatment, and Prevention of Priapism and Erectile Dysfunction” (BOARD OF REGENTS ,THE UNIVERSITY OF TEXAS SYSTEM, priority 2006, published 2010).

Test system: corpus cavernosal smooth muscle cells (CCSM)
Assay: cGMP levels in primary CCSM / PVSM
Format: cell-based, mouse
Conditions: CCSM/PVSM of both wild type and A2BR deficient mice, 10 min
From the text: Results for wild-type and A2B^−/− mouse were statistically significant, p<0.01.
FIG. 18. Adenosine stimulated both cAMP and cGMP induction in corpus cavernosal smooth muscle cells (CCSM) via A2BR activation. (a) Adenosine receptor expression profile in purified primary CCSM. CCSM were purified from adult mouse penes. […] (b) CCSM were isolated and cultured from mouse penes. The cells were switched to serum-free medium and treated with different concentrations of adenosine with or without A2BR antagonist (MRS1706-10 μM), A2AR antagonist (ZM241385-50 nM) or A2AR agonist (CGS-21680-10 μM) alone for 10 min. Then cellular extracts were collected and cAMP levels were measured using an ELISA kit. The data represent mean±SE. *p<0.05, adenosine treated versus the untreated; **p<0.05, adenosine plus MRS1706 or ZM241385 versus the adenosine treated. (c) CCSM were isolated from penes of the wild type and A2BR-deficient mice and cultured with or without adenosine (100 μM), NECA (10 μM), a potent adenosine receptor agonist, forskolin (10 μM), an adenylyl cyclase agonist. […] N=4. *p<0.05, adenosine, forskolin and NECA treated versus the untreated control. (d) Corpus cavernosal strips (CCS) were isolated from wild type and A2BR-deficient mice and treated with different concentrations of adenosine in the presence or absence of L-NAME (100 μM) or MRS1706 (10 μM). 10 min after treatment, cellular extracts were collected and cGMP levels were measured by using a commercial enzyme immunoassay kit (Amersham Pharmacia). Data are expressed as mean±SE. *p<0.05, adenosine treated versus the control; **p<0.05, adenosine treated with MRS1706 versus the adenosine treated; ***p<0.05, CCS of A2BR-deficient mice treated with adenosine versus the CCS of wild type mice treated with adenosine. N=6-7. (e) CCSM were isolated from wild type and A2BR deficient mice and cultured with or without adenosine (100 μM), NECA (10 μM), a potent adenosine receptor agonist, forskolin (10 μM), an adenylyl cyclase agonist, or diethylamine-NONOate (DEA/NO) (10 μM). […] N=4. *p<0.05, DEA/NO treated versus to the untreated control. (f) Both cAMP and cGMP induction contribute to adenosine-mediated decreased PE-induced phosphorylation of myosin light chain (MLC). CCSM and CCS were isolated and cultured with the treatment of phenylephrine (PE-10 μM) in the presence or absence of adenosine (100 μM) or L-NAME (100 μM). 10 min after treatment, cellular extracts were isolated and western blot analysis were performed. The total MLC and phosphorylated MLC at S20 were detected by specific antibodies.
Isolation of primary corpus cavernosal smooth muscle cells (CCSM). Corpus cavernosum tissues were dissected as described above. Cavernosal tissue was washed in PBS and minced into […] pieces. Segments were incubated in 5-10 ml enzyme solutions containing 0.02% collagenase A (0.272 U/mg protein, Roche, Mannheim, Germany) and 0.5% elastase (3.73 U/mg protein, Cell system, St Katharinen, Germany) in a 75 mm flask at 37° C. for 6 hours. Enzymatic digestion was terminated by adding 10 ml DMEM supplemented with 10% fetal calf serum (FCS). […]
Tissue and corpus cavernosum smooth muscle cell (CCSM) cAMP and cGMP measurement. Quantitative assays for cAMP and cGMP were performed by using a commercial enzyme immunoassay kit (Amersham Pharmacia). […]

Structure (SMILES): Nc1ncnc2c1ncn2[C@@H]1O[C@H](CO)[C@@H](O)[C@H]1O [adenosine]
- cGMP levels: lack of significant differences in cGMP production
- cGMP levels (listed as Adenosine): had no effect
